For assay [1], the target named is BMP-2-inducible protein kinase (Homo sapiens) (UniProt Q9NSY1). Nature of the assay: Selectivity interaction (KinomeScan (DiscoverX)) EUB0000702a BMP2K. Conditions: at 1 µM.
In the next assay the target is Focal adhesion kinase 1 (Homo sapiens, UniProt Q05397). Nature of the assay: Selectivity interaction (KinomeScan (DiscoverX)) EUB0000702a PTK2. As to conditions: at 1 µM.
Assay [2] addresses Phosphatidylinositol 4,5-bisphosphate 3-kinase catalytic subunit gamma isoform (Homo sapiens, UniProt P48736). Nature of the assay: Selectivity interaction (KinomeScan (DiscoverX)) EUB0000178b PIK3CG. Conditions: at 1 µM.
For assay [3], the target named is Platelet-derived growth factor receptor beta (Homo sapiens, UniProt P09619). As to conditions: at 1 µM.
Platelet-derived growth factor receptor beta, sequence (P09619 whole entry): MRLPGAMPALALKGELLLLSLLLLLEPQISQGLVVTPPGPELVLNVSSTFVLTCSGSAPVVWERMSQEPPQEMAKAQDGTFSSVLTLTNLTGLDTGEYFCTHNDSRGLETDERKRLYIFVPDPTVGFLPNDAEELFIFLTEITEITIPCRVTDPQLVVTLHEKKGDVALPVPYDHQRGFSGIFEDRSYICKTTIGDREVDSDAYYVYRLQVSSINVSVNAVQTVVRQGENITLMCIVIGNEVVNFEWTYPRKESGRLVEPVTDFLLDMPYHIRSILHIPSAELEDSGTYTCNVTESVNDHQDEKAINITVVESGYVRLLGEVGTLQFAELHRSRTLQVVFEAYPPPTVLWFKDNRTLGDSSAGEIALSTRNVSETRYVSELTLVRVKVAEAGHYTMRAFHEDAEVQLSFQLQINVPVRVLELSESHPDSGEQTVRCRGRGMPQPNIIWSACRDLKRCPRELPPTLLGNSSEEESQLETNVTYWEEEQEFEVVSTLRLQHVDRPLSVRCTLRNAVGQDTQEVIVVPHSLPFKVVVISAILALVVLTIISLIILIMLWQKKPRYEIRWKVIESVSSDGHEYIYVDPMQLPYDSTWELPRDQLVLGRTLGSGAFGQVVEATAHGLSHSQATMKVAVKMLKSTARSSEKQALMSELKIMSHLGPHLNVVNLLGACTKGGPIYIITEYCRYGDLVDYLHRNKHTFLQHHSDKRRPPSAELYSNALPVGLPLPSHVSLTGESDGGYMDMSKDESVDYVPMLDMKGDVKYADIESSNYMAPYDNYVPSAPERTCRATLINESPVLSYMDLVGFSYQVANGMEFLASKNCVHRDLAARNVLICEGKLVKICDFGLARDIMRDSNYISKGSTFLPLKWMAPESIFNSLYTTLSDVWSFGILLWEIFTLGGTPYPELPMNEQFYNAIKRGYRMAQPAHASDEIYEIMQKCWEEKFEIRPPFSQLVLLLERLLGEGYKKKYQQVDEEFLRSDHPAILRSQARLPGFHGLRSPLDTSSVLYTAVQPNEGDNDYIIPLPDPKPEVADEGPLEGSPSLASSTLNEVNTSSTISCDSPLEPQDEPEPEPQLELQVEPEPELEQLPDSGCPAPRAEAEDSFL
Assay [4] deals with T1, Mitogen-activated protein kinase kinase kinase 19 (Homo sapiens) (UniProt Q56UN5).
T1 sequence (whole entry): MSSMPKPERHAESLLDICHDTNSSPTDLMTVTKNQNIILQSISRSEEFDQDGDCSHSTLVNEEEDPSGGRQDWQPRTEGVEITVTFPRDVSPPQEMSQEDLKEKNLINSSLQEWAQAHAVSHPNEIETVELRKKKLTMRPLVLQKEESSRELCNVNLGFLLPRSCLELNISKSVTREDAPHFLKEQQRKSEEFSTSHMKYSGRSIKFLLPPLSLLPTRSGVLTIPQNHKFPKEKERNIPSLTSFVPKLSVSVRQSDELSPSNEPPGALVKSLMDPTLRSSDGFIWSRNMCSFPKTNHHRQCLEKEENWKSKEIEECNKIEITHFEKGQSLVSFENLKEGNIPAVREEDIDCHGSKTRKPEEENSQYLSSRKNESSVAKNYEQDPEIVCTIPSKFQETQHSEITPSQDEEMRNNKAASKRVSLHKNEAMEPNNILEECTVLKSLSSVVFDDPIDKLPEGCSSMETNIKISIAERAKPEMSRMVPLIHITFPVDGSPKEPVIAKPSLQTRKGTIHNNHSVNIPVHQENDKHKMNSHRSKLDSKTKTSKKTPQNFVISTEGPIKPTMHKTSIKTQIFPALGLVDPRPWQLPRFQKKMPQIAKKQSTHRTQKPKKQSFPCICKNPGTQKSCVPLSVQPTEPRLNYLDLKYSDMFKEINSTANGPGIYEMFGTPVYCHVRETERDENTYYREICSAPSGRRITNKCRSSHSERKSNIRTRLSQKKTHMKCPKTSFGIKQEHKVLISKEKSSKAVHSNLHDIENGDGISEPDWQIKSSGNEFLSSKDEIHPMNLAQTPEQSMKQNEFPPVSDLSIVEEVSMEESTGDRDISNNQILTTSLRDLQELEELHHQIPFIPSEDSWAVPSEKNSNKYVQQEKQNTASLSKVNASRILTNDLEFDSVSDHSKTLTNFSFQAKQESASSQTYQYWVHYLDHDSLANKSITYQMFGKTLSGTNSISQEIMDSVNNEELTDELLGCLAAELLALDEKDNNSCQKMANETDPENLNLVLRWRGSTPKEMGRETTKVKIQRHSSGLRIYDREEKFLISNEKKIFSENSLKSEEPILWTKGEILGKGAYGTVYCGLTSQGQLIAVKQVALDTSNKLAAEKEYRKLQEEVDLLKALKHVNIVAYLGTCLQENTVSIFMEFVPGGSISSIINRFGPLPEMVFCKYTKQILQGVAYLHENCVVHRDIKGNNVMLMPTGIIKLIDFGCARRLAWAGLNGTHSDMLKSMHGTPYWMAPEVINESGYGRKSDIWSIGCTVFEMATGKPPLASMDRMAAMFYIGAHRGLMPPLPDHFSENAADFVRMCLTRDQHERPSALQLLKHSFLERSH
Kind of assay: Selectivity interaction (KinomeScan (DiscoverX)) EUB0000305b MAP3K19. Conditions: CellTiter-Glo assay (Promega, proliferation in ACHN cells): IC50 = […] nM, https://www.sgc-ffm.uni-frankfurt.de/#!specificprobeove, at 100 nM.

The target of assay [5] is Serine/threonine-protein kinase 3 (Homo sapiens) (UniProt Q13188). Nature of the assay: Selectivity interaction (KinomeScan (DiscoverX)) EUB0000698a STK3. As to conditions: at 10 µM.
Serine/threonine-protein kinase 3 (Homo sapiens), sequence (Q13188 whole entry): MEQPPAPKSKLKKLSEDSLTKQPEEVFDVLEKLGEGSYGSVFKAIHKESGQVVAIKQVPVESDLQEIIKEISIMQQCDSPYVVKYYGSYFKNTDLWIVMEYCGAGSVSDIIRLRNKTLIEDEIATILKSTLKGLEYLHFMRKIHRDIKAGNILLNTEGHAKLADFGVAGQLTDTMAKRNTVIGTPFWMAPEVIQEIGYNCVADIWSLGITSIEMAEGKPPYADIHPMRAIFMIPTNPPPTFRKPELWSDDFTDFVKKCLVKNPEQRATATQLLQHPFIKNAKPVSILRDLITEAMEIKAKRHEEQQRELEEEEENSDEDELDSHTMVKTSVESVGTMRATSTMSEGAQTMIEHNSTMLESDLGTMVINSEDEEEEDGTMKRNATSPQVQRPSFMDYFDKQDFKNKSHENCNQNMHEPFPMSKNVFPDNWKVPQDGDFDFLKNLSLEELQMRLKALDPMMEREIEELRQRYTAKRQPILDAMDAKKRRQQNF
In assay [6] the target is T2, Cyclin-G-associated kinase (Homo sapiens) (UniProt O14976).
T2 sequence (whole entry): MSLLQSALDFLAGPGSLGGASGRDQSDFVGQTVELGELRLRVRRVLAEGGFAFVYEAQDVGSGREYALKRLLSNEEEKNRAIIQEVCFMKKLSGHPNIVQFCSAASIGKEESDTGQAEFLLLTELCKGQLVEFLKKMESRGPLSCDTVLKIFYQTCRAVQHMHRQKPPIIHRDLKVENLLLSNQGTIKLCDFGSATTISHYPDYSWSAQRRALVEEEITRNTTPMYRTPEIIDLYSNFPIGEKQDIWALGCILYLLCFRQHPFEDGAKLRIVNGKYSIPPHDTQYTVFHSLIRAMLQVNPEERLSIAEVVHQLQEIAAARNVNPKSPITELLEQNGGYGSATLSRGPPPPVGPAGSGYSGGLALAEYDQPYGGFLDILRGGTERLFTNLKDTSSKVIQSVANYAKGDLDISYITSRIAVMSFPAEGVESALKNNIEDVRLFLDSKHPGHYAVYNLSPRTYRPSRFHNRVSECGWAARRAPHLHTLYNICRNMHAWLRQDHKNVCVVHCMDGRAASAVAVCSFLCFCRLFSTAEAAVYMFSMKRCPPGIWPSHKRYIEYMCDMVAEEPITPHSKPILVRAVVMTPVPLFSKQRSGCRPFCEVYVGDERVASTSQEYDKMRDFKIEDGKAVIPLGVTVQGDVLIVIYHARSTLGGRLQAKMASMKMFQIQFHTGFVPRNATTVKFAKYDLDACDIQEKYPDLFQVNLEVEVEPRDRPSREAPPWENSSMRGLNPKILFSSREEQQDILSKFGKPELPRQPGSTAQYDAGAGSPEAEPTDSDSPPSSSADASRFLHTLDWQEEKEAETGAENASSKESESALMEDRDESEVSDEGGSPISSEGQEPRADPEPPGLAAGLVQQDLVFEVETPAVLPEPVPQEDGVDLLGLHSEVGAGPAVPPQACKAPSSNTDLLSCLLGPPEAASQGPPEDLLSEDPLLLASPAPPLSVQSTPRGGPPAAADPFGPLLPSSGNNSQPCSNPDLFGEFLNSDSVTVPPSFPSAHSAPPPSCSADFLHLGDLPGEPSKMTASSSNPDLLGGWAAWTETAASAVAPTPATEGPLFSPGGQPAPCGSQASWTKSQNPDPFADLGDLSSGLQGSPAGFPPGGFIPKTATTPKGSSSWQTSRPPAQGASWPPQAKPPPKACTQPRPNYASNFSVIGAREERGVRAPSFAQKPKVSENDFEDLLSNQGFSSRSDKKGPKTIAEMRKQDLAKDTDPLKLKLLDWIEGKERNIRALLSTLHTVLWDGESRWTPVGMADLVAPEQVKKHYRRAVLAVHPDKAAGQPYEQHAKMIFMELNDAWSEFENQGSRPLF
Nature of the assay: Selectivity interaction (KinomeScan (DiscoverX)) EUB0000698a GAK. Conditions: at 10 µM.

Data on five compounds can be found in ChEMBL document CHEMBL5212743, “Selectivity Literature for EUbOPEN Chemogenomics Library wave 3” (2023).

Focal adhesion kinase 1, sequence (Q05397 2-1052 limits assumed): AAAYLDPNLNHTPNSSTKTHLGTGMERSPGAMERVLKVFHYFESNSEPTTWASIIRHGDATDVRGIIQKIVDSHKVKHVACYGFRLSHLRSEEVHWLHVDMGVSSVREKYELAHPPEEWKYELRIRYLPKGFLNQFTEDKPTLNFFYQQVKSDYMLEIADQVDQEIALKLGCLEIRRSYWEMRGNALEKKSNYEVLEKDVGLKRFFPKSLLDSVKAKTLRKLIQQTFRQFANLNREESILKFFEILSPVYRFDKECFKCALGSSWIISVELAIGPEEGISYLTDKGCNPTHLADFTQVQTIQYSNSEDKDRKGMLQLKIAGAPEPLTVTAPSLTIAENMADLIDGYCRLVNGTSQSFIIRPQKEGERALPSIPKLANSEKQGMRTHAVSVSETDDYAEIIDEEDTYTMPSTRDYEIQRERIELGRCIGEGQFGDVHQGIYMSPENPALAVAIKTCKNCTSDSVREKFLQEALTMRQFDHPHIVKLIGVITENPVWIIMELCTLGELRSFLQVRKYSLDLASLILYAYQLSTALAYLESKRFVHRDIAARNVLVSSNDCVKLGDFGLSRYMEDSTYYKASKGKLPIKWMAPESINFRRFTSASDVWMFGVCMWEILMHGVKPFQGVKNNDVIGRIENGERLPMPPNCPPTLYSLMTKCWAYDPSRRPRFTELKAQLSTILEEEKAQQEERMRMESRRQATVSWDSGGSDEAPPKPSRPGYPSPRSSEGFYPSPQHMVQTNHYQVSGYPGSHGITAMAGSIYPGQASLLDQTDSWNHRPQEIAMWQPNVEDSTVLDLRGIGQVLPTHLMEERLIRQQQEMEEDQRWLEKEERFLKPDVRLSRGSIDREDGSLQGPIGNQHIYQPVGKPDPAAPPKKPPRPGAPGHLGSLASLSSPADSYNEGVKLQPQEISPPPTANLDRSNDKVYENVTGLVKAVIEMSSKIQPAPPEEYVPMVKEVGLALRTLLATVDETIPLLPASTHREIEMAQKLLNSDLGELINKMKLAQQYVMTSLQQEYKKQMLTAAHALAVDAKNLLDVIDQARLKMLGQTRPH
BMP-2-inducible protein kinase (Homo sapiens), sequence (Q9NSY1 whole entry, looked up): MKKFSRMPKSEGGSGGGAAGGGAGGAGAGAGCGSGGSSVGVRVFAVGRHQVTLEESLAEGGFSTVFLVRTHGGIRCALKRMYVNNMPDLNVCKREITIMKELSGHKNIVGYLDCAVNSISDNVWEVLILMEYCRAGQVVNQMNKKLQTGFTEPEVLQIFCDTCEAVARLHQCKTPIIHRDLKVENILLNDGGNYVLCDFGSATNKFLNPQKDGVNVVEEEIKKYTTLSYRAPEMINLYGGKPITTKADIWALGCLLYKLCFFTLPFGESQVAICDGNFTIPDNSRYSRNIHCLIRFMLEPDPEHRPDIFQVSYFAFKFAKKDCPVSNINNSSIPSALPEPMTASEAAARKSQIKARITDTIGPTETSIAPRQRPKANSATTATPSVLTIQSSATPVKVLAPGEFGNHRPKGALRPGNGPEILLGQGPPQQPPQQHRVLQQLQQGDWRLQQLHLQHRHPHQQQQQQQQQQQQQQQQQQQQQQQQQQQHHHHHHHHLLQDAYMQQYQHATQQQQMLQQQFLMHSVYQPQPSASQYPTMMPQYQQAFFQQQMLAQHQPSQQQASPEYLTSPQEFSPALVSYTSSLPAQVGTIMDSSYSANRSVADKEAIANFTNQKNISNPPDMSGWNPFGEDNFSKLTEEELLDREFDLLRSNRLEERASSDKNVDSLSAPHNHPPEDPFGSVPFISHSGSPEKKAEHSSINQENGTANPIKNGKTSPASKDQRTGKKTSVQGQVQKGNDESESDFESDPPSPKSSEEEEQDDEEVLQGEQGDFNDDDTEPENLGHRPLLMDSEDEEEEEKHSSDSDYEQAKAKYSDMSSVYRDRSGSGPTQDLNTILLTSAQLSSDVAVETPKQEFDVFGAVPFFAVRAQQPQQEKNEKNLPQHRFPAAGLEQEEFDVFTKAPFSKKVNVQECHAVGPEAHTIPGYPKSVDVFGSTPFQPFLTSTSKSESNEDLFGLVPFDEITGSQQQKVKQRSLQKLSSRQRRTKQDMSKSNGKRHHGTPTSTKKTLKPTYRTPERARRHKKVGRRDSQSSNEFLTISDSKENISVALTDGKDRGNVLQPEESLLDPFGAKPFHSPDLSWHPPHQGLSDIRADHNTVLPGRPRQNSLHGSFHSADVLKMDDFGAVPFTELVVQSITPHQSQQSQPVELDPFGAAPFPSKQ
Phosphatidylinositol 4,5-bisphosphate 3-kinase catalytic subunit gamma isoform, sequence (P48736 whole entry, looked up, canonical isoform): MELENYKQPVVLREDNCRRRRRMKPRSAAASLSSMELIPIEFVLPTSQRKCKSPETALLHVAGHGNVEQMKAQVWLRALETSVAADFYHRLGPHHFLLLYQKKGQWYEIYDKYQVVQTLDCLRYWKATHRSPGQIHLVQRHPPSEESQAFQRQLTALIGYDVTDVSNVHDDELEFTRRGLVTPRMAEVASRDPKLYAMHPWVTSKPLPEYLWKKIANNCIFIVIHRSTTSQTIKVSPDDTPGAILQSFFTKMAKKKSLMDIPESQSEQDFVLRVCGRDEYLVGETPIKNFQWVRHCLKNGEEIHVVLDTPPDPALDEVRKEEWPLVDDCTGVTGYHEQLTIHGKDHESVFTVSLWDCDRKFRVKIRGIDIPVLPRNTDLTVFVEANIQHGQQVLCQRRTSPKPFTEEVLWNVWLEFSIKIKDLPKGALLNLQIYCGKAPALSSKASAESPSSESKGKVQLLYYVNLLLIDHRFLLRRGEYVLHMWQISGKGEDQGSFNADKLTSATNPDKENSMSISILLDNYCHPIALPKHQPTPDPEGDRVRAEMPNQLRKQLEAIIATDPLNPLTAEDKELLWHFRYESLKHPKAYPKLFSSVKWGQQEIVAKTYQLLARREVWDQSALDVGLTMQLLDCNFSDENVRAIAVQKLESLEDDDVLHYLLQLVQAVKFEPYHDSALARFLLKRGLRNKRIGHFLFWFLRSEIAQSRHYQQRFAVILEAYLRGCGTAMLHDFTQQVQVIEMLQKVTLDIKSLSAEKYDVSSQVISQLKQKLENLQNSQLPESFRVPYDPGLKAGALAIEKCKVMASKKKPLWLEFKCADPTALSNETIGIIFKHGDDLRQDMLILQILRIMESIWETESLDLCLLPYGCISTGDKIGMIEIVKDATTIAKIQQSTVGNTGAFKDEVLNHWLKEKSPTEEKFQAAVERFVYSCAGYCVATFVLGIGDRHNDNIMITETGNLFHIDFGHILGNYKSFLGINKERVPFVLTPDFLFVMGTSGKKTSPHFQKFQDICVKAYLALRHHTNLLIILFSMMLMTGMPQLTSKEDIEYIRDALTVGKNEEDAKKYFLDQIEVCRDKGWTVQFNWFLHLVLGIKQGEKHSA

Take `CN(c1ccnc(CNc2nc(Nc3ccc4c(c3)CC(=O)N4)ncc2C(F)(F)F)n1)S(C)(=O)=O` [PF-00911705]: the % of control in assay [1] was 2.3%; on Focal adhesion kinase 1 it was 4.9%.

For the compound `CN1C(=O)c2sccc2N(C)c2nc(Nc3ccc(S(N)(=O)=O)cc3)ncc21`, the % of control in assay [2] was determined as 0.15%.

`CCOc1cn(-c2ccc(F)cc2C)nc1C(=O)Nc1ccc(Oc2ccnc3cc(OC)c(OC)cc23)c(F)c1`: the % of control in assay [3] is under 10%.

Take `C[C@H](c1ccnc(Nc2nc3ccc(-c4cc(N(C)C)ncn4)cc3[nH]2)c1)N1CCN(C(=O)CC(F)(F)F)CC1` [BAY-985]: the % of control in assay [4] turned out to be 10%.

As to `COc1cc2ncn(-c3cc(OCc4ccccc4C(F)(F)F)c(C(N)=O)s3)c2cc1OC` [GW843682X], the % of control in assay [5] amounted to 1.8%; in assay [6], 4.1%.
